Measured values from patent US6376666B1 (Nauchno-Issledovatelsky Institut Farmakologii Rossiiskoi …, priority 1994, dated 2002).
Marks after values point to notes of the source that are not given here.

Legend:
Balb/c mice = experiment: open-field test, Balb/c mice (passive type of emotional-stress reaction); type: in vivo; design: key to Total activity: sum of all locomotor activity counts (crossings + rearings) in 3 min; conditions: for Number of defecations / Peripheral activity (crossings) / Total activity / Central activity (crossings) / Vertical activity (rearings): M ± mx; for effect on the behavior (locomotor activity) of Balb/c mice in open-field test, in words: i.p., screening
In short: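 Male mice, 20-22 g, dosed i.p. in water 30 min before a 3-min open-field test after 1 min in darkness; peripheral, central, rearing and total activity plus defecations recorded; Student t-test. Anxiolysis read as Balb/c activation, sedation as C57B1/6 inhibition.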

aconitine arrhythmia = experiment: animal or person; type: in vivo, rats; conditions: for ED50: Rattus norvegicus, iv, read-out: Aconitine arrhythmia ED50
Experimental: Aconitine arrhythmia. The aconitine arrhythmia was induced in concious rats weighing 180-200 g by the injection in tail vein of the aconitine sulfate solution at dose range of […]. […] The tested compounds were administered i.v. 3 min prior aconitine injection. The ED50 value was calculated according to Litchfield's method.

[1] = test system: ventricular fibrillations; experiment: ventricular fibrillation, 7-min occlusion and reperfusion of coronary artery in anesthetized rats; type: in vivo; conditions: for Number of VF (ventricular fibrillations) / Number of LHA (lethality hazardous arrhythmia) / Total numbers of arrhyt. / Severity of arrhythmias: anesthetized rats; for Number of VF (ventricular fibrillations): control 15 of 24; for Number of LHA (lethality hazardous arrhythmia): control 22 of 24; for Total numbers of arrhyt.: control 24 of 24; for Severity of arrhythmias: control 66
Experimental: The experiments were conducted in male rats weighing 180-240 g and anesthetized with nembutal (60 mg/kg i.v.) with open chest and artificial respiration. The occlusion of the left coronary artery was performed 1-2 min after experiment beginning with following reperfusion after 7 min. During this period time according to literature data [Krzeminski T., Grzyb J., Kurcok A., Brus R.: Pol.J.Pharmacol., 1992, 44, Suppl., p.169-170] the maximum number of ventricular fibrillations (70-100%) were registered. The ECG in the 2nd standard lead was recorded in “Mingograph-81”. The number of ventricular fibrillations during occlusion and reperfusion periods, the life menacing arrhythmia (fibrillation+paroxysmal ventricular tachycardia) and total number of arrhythmias were calculated. The known antiarrhythmic drug bonnecor was used as the reference agent [Grigorieva E. K., Gorbunova V. V. in: “New antiarrhythmic drug—bonnecor (the pharmacology and clinical usage)”, M., 1993, p.64-67]. The compounds were injected i.v. at the following doses: bonnecor—1,0 mg/kg, compound IX—2,0 mg/kg, compound XX—1,0 mg/kg. The control animals were administered with the equivalent volume of physiological solution (1,0 ml/kg). 4 series of experiments were carried out in 80 rats. The results were assessed according to the method of point scale: the absence of arrhythmia—0 point, extrasystole—1 point, paroxysmal ventricular tachycardia—2 points, ventricular fibrillation—3 points, fibrillation observed during the occlusion of coronary vessel—4 points. For statistical analysis the Fisher's exact probability and Wilconson's methods were used.
[Krzeminski T., Grzyb J., Kurcok A., Brus R.: Pol.J.Pharmacol., 1992, 44, Suppl., p.169-170] have shown that 7 min occlusion with following reperfusion of coronary artery in anesthetized rats produced the ventricular fibrillation (68-100%). Defibrotide and prostacycline decreased the number of fibrillations. We have studied the antifibrillator activity of some derivatives of 2-mercaptbenzimidazole in this model with disturbances of heart rhythm. Bonnecor (1,0 mg/kg) was used as the reference drug. It is well known that this agent produces apronouncedantifibrillatoryactivity [Grigorieva E. K., Gorbunova V. V. in: “New antiarrhythmic drug-bonnecor (the pharmacology and clinical usage)”, M., 1993, p.64-67].

CCOc1ccc2nc(SCCN(CC)CC)[nH]c2c1 [Compound IX, 2-[2-(Diethylamino)ethylthio]-5-ethoxybenz-imidazole]
Number of defecations (Balb/c mice; 0.1 mg/kg i.p.): 0.1 ± 0.1 | Peripheral activity (crossings) (Balb/c mice; 0.1 mg/kg i.p., 0.1 mg/kg): 15.1 ± 9.0 | Total activity (Balb/c mice; 0.1 mg/kg i.p., 0.1 mg/kg): 15.1 ± 9.0 | Peripheral activity (crossings) (Balb/c mice; 1.0 mg/kg i.p., 1 mg/kg): 39.8 ± 7.3 | Total activity (Balb/c mice; 1.0 mg/kg i.p., 1 mg/kg): 39.8 ± 7.3 | Peripheral activity (crossings) (Balb/c mice; 5.0 mg/kg i.p.): 44.1 ± 10.2 | Total activity (Balb/c mice; 5.0 mg/kg i.p.): 44.1 ± 10.2 | Peripheral activity (crossings) (Balb/c mice; 10.0 mg/kg i.p., 10 mg/kg): 36.8 ± 5.0 | Total activity (Balb/c mice; 10.0 mg/kg i.p., 10 mg/kg): 36.8 ± 5.0 | Peripheral activity (crossings) (Balb/c mice; 20.0 mg/kg i.p.): 17.8 ± 5.5 | Total activity (Balb/c mice; 20.0 mg/kg i.p.): 17.8 ± 5.5 | effect on the behavior (locomotor activity) of Balb/c mice in open-field test, in words (Balb/c mice): able to activate the behavior of Balb/c mice | LD50/ED50 (antiarrhythmic index) (aconitine arrhythmia; LD50 i.v. / ED50 aconitine arrhythmia): 26,2 | ED50 (aconitine arrhythmia): 1.2 mg/kg | activity relative to lidocaine, aconitine arrhythmia (aconitine arrhythmia; rats, higher than lidocaine): 6,5 folds | activity relative to quinidine, aconitine arrhythmia (aconitine arrhythmia; rats, higher than quinidine): 4,4 folds | antifibrillatory effect, in words ([1]; anesthetized rats i.v., bonnecor 1,0, IX 2,0, X (printed) 1,0 mg/kg): reduced the number of both the ventricular fibrillations and lethality hazardous arrhythmia | Number of VF (ventricular fibrillations) ([1]; 2 mg/kg i.v., 20 animals): 4* | Number of LHA (lethality hazardous arrhythmia) ([1]; 2 mg/kg i.v., 20 animals): 12* | Total numbers of arrhyt. ([1]; 2 mg/kg i.v., 20 animals): 17^ | Severity of arrhythmias ([1]; 2 mg/kg i.v., 20 animals): 32** points

CN(C)CCSc1nc2ccccc2n1CCc1ccccc1 [Compound XX, 1-(β-Phenylethyl)-2-[2-(dimethylamino)ethylthio]-benzimidazole]
ED50 (aconitine arrhythmia): < 0.5 mg/kg | Number of VF (ventricular fibrillations) ([1]; 1 mg/kg i.v., 18 animals): 7^ | Number of LHA (lethality hazardous arrhythmia) ([1]; 1 mg/kg i.v., 18 animals): 11* | Total numbers of arrhyt. ([1]; 1 mg/kg i.v., 18 animals): 13** | Severity of arrhythmias ([1]; 1 mg/kg i.v., 18 animals): 34* points

CCOc1ccc2nc(SCCN3CCOCC3)[nH]c2c1 [XII, 2-[2-(Morpholino)ethylthio]-5-ethoxybenzimidazole]
Central activity (crossings) (Balb/c mice; 0.001 mg/kg i.p.): 1.6 ± 1.6 | Peripheral activity (crossings) (Balb/c mice; 0.001 mg/kg i.p.): 28.9 ± 8.8 | Total activity (Balb/c mice; 0.001 mg/kg i.p.): 30.3 ± 9.4 | Central activity (crossings) (Balb/c mice; 0.01 mg/kg i.p.): 2.6 ± 1.4 | Number of defecations (Balb/c mice; 0.01 mg/kg i.p.): 3.1 ± 0.6 | Peripheral activity (crossings) (Balb/c mice; 0.01 mg/kg i.p.): 79.8 ± 9.3 | Total activity (Balb/c mice; 0.01 mg/kg i.p.): 83.2 ± 11.3 | Vertical activity (rearings) (Balb/c mice; 0.01 mg/kg i.p.): 0.9 ± 0.6 | Number of defecations (Balb/c mice; 0.05 mg/kg i.p.): 2.0 ± 0.8 | Peripheral activity (crossings) (Balb/c mice; 0.05 mg/kg i.p.): 37.1 ± 6.7 | Total activity (Balb/c mice; 0.05 mg/kg i.p.): 37.1 ± 6.7 | Number of defecations (Balb/c mice; 0.1 mg/kg i.p.): 2.4 ± 0.7 | Peripheral activity (crossings) (Balb/c mice; 0.1 mg/kg i.p.): 70.6 ± 10.6 | Total activity (Balb/c mice; 0.1 mg/kg i.p.): 73.7 ± 12.7 | Central activity (crossings) (Balb/c mice; 0.5 mg/kg i.p.): 2.9 ± 1.5 | Number of defecations (Balb/c mice; 0.5 mg/kg i.p.): 1.6 ± 0.8 | Peripheral activity (crossings) (Balb/c mice; 0.5 mg/kg i.p.): 77.6 ± 14.2 | Total activity (Balb/c mice; 0.5 mg/kg i.p.): 80.5 ± 15.7 | Central activity (crossings) (Balb/c mice; 1.0 mg/kg i.p.): 0.5 ± 0.3 | Number of defecations (Balb/c mice; 1.0 mg/kg i.p.): 2.8 ± 0.9 | Peripheral activity (crossings) (Balb/c mice; 1.0 mg/kg i.p.): 66.3 ± 11.1 | Total activity (Balb/c mice; 1.0 mg/kg i.p.): 66.8 ± 11.4 | Central activity (crossings) (Balb/c mice; 5.0 mg/kg i.p.): 2.3 ± 1.5 | Number of defecations (Balb/c mice; 5.0 mg/kg i.p.): 0.8 ± 0.5 | Peripheral activity (crossings) (Balb/c mice; 5.0 mg/kg i.p.): 43.0 ± 4.4 | Total activity (Balb/c mice; 5.0 mg/kg i.p.): 45.3 ± 5.9 | Central activity (crossings) (Balb/c mice; 10.0 mg/kg i.p.): 0.9 ± 0.3 | Number of defecations (Balb/c mice; 10.0 mg/kg i.p.): 2.0 ± 0.7 | Peripheral activity (crossings) (Balb/c mice; 10.0 mg/kg i.p.): 54.8 ± 8.3 | Total activity (Balb/c mice; 10.0 mg/kg i.p.): 55.7 ± 8.6 | Central activity (crossings) (Balb/c mice; 30.0 mg/kg i.p.): 1.1 ± 0.7 | Number of defecations (Balb/c mice; 30.0 mg/kg i.p.): 4.5 ± 1.4 | Peripheral activity (crossings) (Balb/c mice; 30.0 mg/kg i.p.): 50.5 ± 7.9 | Total activity (Balb/c mice; 30.0 mg/kg i.p.): 51.7 ± 8.7 | Vertical activity (rearings) (Balb/c mice; 30.0 mg/kg i.p.): 0.1 ± 0.1 | Number of defecations (Balb/c mice; 50.0 mg/kg i.p.): 1.6 ± 0.5 | Peripheral activity (crossings) (Balb/c mice; 50.0 mg/kg i.p.): 11.0 ± 1.6 | Total activity (Balb/c mice; 50.0 mg/kg i.p.): 11.0 ± 1.6 | effect on the behavior (locomotor activity) of Balb/c mice in open-field test, in words (Balb/c mice): able to activate the behavior of Balb/c mice
